Values joined by “and” are separate entries in the source; they are usually repeats but may differ in a detail not shown here. Equal entries are not always repeated. Toxic doses and inconclusive results are not listed.
System: P388 leukemia ip, CD2F1 mice, survival T/C
Experiment: NCI In Vivo Anticancer Drug Screen. Data for tumor model P388 Leukemia (intraperitoneal) in CD2F1 (CDF1) mice
Settings: endpoint: median survival time, higher = longer survival
How it was run: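 Mice carrying the transplanted tumor received test compound or vehicle. Survival was recorded in each group, and the value is the treated-group measurement divided by that of the vehicle-treated control group.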

[1] = dose: 12.5 mg/kg/injection, schedule: Q01DX009 (ip), vehicle: saline
[2] = dose: 25.0 mg/kg/injection, schedule: Q01DX009 (ip), vehicle: saline
[3] = dose: 50.0 mg/kg/injection, schedule: Q01DX009 (ip), vehicle: saline
[4] = dose: 50.0 mg/kg/injection, schedule: Q01DX009 (ip), vehicle: Klucel (hydroxypropylcellulose) (HPC)
[5] = dose: 100.0 mg/kg/injection, schedule: Q01DX009 (ip), vehicle: Klucel (hydroxypropylcellulose) (HPC)
[6] = dose: 100.0 mg/kg/injection, schedule: Q04DX003 (ip), vehicle: Klucel (hydroxypropylcellulose) (HPC)
[7] = dose: 200.0 mg/kg/injection, schedule: Q04DX003 (ip), vehicle: Klucel (hydroxypropylcellulose) (HPC)
[8] = dose: 50.0 mg/kg/injection, schedule: Q01DX005 (ip), vehicle: Klucel (hydroxypropylcellulose) (HPC)
[9] = dose: 100.0 mg/kg/injection, schedule: Q01DX005 (ip), vehicle: Klucel (hydroxypropylcellulose) (HPC)
[10] = dose: 200.0 mg/kg/injection, schedule: Q01DX005 (ip), vehicle: Klucel (hydroxypropylcellulose) (HPC)
[11] = dose: 50.0 mg/kg/injection, schedule: Q01DX009 (ip), vehicle: saline with Tween-80
[12] = dose: 100.0 mg/kg/injection, schedule: Q01DX009 (ip), vehicle: saline with Tween-80
[13] = dose: 50.0 mg/kg/injection, schedule: Q01DX005 (ip), vehicle: saline
[14] = dose: 100.0 mg/kg/injection, schedule: Q01DX009 (ip), vehicle: saline
[15] = dose: 50.0 mg/kg/injection, schedule: Q01DX005 (ip), vehicle: saline with Tween-80
[16] = dose: 100.0 mg/kg/injection, schedule: Q01DX005 (ip), vehicle: saline with Tween-80
[17] = dose: 200.0 mg/kg/injection, schedule: Q01DX005 (ip), vehicle: saline with Tween-80
[18] = dose: 100.0 mg/kg/injection, schedule: Q01DX005 (ip), vehicle: saline
[19] = dose: 200.0 mg/kg/injection, schedule: Q01DX005 (ip), vehicle: saline
[20] = dose: 60.0 mg/kg/injection, schedule: Q01DX005 (ip), vehicle: saline with Tween-80
[21] = dose: 120.0 mg/kg/injection, schedule: Q01DX005 (ip), vehicle: saline with Tween-80
[22] = dose: 240.0 mg/kg/injection, schedule: Q01DX005 (ip), vehicle: saline with Tween-80
[23] = dose: 25.0 mg/kg/injection, schedule: Q01DX009 (ip), vehicle: saline with Tween-80

CCCCNC(C)(C)C(SSSC(c1ccco1)C(C)(C)NCCCC)c1ccco1 (configuration not stated)
T/C [1]: 109 % of control | T/C [2]: 113 % of control | T/C [3]: 113 % of control | T/C (dose: 66.0 mg/kg/injection, schedule: Q04DX003 (ip), vehicle: saline): 100 % of control | T/C (dose: 100.0 mg/kg/injection, schedule: Q04DX003 (ip), vehicle: saline): 118 % of control | T/C (dose: 150.0 mg/kg/injection, schedule: Q04DX003 (ip), vehicle: saline): 109 % of control

Cc1csc(NC(=S)N(C)C)n1
T/C (dose: 100.0 mg/kg/injection, schedule: Q04DX002 (ip), vehicle: saline with Tween-80): 103 % of control | T/C (dose: 200.0 mg/kg/injection, schedule: Q04DX002 (ip), vehicle: saline with Tween-80): 101 % of control | T/C (dose: 400.0 mg/kg/injection, schedule: Q04DX002 (ip), vehicle: saline with Tween-80): 101 % of control

CC(=O)NC1CC(=O)N(c2ccc(Cl)cc2)C1=O (configuration not stated)
T/C [4]: 96 % of control | T/C [5]: 96 % of control | T/C [6]: 102 % of control | T/C [7]: 101 % of control

CCN1C(SC)=NC(=O)C1(c1ccc(C)cc1)c1ccc(C)cc1
T/C [8]: 100 % of control | T/C [9]: 106 % of control | T/C [10]: 98 % of control

CC1CN(C(=O)Nc2c(C(C)C)cccc2C(C)C)CC(C)O1 (configuration not stated)
T/C [11]: 96 % of control | T/C [12]: 90 % of control

O=P(O)(O)OCC1(O)OCC(O)C(O)C1O (configuration not stated)
T/C (dose: 12.5 mg/kg/injection, schedule: Q01DX005 (ip), vehicle: saline): 106 % of control | T/C (dose: 25.0 mg/kg/injection, schedule: Q01DX005 (ip), vehicle: saline): 104 % of control | T/C [13]: 99 % of control and 103 % of control

CN(C)CCCC1(O)c2ccccc2CCc2ccccc21
T/C [1]: 103 % of control | T/C [2]: 108 % of control | T/C [3]: 101 % of control and 119 % of control | T/C [14]: 94 % of control

CCCCCCC(=O)/C=C/c1ccc(Br)cc1
T/C [15]: 104 % of control | T/C [16]: 104 % of control | T/C [17]: 97 % of control

C1CN2CCN3CCCN4CCN(C1)C2C34 (configuration not stated)
T/C [13]: 93 % of control | T/C [18]: 108 % of control | T/C [19]: 111 % of control

C/C(N)=C(\C#N)C(=O)c1ccccc1
T/C [8]: 100 % of control | T/C [9]: 103 % of control | T/C [10]: 111 % of control

O=C1CSC(COc2ccc(Cl)cc2Cl)O1 (configuration not stated)
T/C (dose: 25.0 mg/kg/injection, schedule: Q01DX009 (ip), vehicle: Klucel (hydroxypropylcellulose) (HPC)): 100 % of control | T/C [4]: 97 % of control

Nc1nc(N)c2[nH]c(N=Nc3ccc(N(CCO)CCO)cc3)nc2n1
T/C [15]: 106 % of control | T/C [16]: 106 % of control | T/C [17]: 108 % of control

C[C@]12CC[C@H]3[C@@H](CC[C@]4(O)C[C@@H](O)CC[C@]34CO)[C@@]1(O)CC[C@@H]2C1=CC(=O)OC1
T/C (dose: 25.0 mg/kg/injection, schedule: Q04DX003 (ip), vehicle: suspension in saline): 97 % of control | T/C (dose: 50.0 mg/kg/injection, schedule: Q04DX003 (ip), vehicle: suspension in saline): 98 % of control | T/C (dose: 100.0 mg/kg/injection, schedule: Q04DX003 (ip), vehicle: suspension in saline): 97 % of control | T/C (dose: 200.0 mg/kg/injection, schedule: Q04DX003 (ip), vehicle: suspension in saline): 100 % of control

O=c1sc2ccccc2n2cccc12
T/C [20]: 92 % of control | T/C [21]: 94 % of control | T/C [22]: 92 % of control

COc1ccc([N+](=O)[O-])cc1NOC(C)=O
T/C [6]: 111 % of control | T/C [7]: 119 % of control | T/C (dose: 400.0 mg/kg/injection, schedule: Q04DX003 (ip), vehicle: Klucel (hydroxypropylcellulose) (HPC)): 94 % of control

CCOC(=O)/C=C/C(F)(F)F
T/C (dose: 30.0 mg/kg/injection, schedule: Q01DX005 (ip), vehicle: saline with Tween-80): 100 % of control | T/C (dose: 30.0 mg/kg/injection, schedule: Q01DX005 (ip), vehicle: saline): 94 % of control | T/C [20]: 100 % of control | T/C (dose: 60.0 mg/kg/injection, schedule: Q01DX005 (ip), vehicle: saline): 99 % of control and 101 % of control | T/C [21]: 100 % of control | T/C (dose: 120.0 mg/kg/injection, schedule: Q01DX005 (ip), vehicle: saline): 100 % of control and 101 % of control | T/C [22]: 107 % of control | T/C (dose: 240.0 mg/kg/injection, schedule: Q01DX005 (ip), vehicle: saline): 100 % of control and 120 % of control

COc1ccc(CO)cc1O
T/C [14]: 105 % of control and 97 % of control | T/C (dose: 200.0 mg/kg/injection, schedule: Q01DX009 (ip), vehicle: saline): 104 % of control and 107 % of control | T/C (dose: 400.0 mg/kg/injection, schedule: Q01DX009 (ip), vehicle: saline): 104 % of control | T/C (dose: 600.0 mg/kg/injection, schedule: Q01DX009 (ip), vehicle: saline): 95 % of control and 96 % of control

Cn1cnc([N+](=O)[O-])c1Sc1nc(N)nc2nc[nH]c12
T/C [23]: 109 % of control | T/C (dose: 50.0 mg/kg/injection, schedule: Q01DX009 (ip), vehicle: saline sonified): 109 % of control | T/C [6]: 122 % of control

C/C(=N/NC(=O)CCl)c1ccccc1
T/C (dose: 75.0 mg/kg/injection, schedule: Q01DX009 (ip), vehicle: saline with Tween-80): 108 % of control

COC1(CO)OCC(O)C(O)C1O (configuration not stated)
T/C [13]: 91 % of control | T/C [18]: 93 % of control | T/C [19]: 101 % of control

COc1cc(/C=N/NC(=O)C(=O)N/N=C/c2cc(OC)c(OC)c(OC)c2)cc(OC)c1OC
T/C [4]: 89 % of control | T/C [5]: 95 % of control | T/C (dose: 200.0 mg/kg/injection, schedule: Q01DX009 (ip), vehicle: Klucel (hydroxypropylcellulose) (HPC)): 93 % of control

COC(=O)CCCCc1ccc(CCCCC(=O)OC)c2ccccc12
T/C (dose: 50.0 mg/kg/injection, schedule: Q01DX009 (ip), vehicle: other): 103 % of control | T/C (dose: 100.0 mg/kg/injection, schedule: Q01DX009 (ip), vehicle: other): 100 % of control | T/C (dose: 200.0 mg/kg/injection, schedule: Q01DX009 (ip), vehicle: other): 97 % of control

N#CCC(O)(/C=C/c1ccccc1)c1ccccc1 (configuration not stated)
T/C (dose: 100.0 mg/kg/injection, schedule: Q01DX009 (ip), vehicle: saline sonified): 91 % of control | T/C (dose: 200.0 mg/kg/injection, schedule: Q01DX009 (ip), vehicle: saline sonified): 86 % of control | T/C (dose: 400.0 mg/kg/injection, schedule: Q01DX009 (ip), vehicle: saline sonified): 95 % of control

Oc1ccc(C2c3ccccc3Oc3ccccc32)c2ccccc12
T/C (dose: 100.0 mg/kg/injection, schedule: Q01DX001 (ip), vehicle: gum acacia): 93 % of control | T/C (dose: 200.0 mg/kg/injection, schedule: Q01DX001 (ip), vehicle: gum acacia): 105 % of control | T/C (dose: 400.0 mg/kg/injection, schedule: Q01DX001 (ip), vehicle: gum acacia): 101 % of control

CC1(C)COC2(CC3(C)CC(=O)CC3(C)C2)OC1 (configuration not stated)
T/C [11]: 105 % of control | T/C [12]: 90 % of control | T/C (dose: 200.0 mg/kg/injection, schedule: Q01DX009 (ip), vehicle: saline with Tween-80): 102 % of control

C[n+]1ccc(NC(=O)c2ccc(NC(=O)c3cccc(C(=O)Nc4ccc(C(=O)Nc5cc[n+](C)cc5)cc4)c3)cc2)cc1
T/C (dose: 6.25 mg/kg/injection, schedule: Q04DX003 (ip), vehicle: saline with Tween-80): 112 % of control | T/C (dose: 12.5 mg/kg/injection, schedule: Q04DX003 (ip), vehicle: saline with Tween-80): 120 % of control | T/C [23]: 159 % of control | T/C [11]: 195 % of control | T/C (dose: 50.0 mg/kg/injection, schedule: Q04DX003 (ip), vehicle: saline with Tween-80): 154 % of control | T/C (dose: 66.0 mg/kg/injection, schedule: Q04DX003 (ip), vehicle: saline with Tween-80): 170 % of control

c1ccc2c(c1)Oc1cccc3cccc-2c13
T/C [8]: 97 % of control | T/C [9]: 101 % of control | T/C [10]: 101 % of control

— PubChem BioAssay AID330 (DTP/NCI, 2004)
